In PMC10743653, “Combined In Silico and In Vitro Analyses to Assess the Anticancer Potential of Thiazolidinedione–Thiosemicarbazone Hybrid Molecules” (International Journal of Molecular Sciences, 2023):

What was measured:
HT29 cells = assay: Nitric oxide measurement (Griess), HT29; assay type: cell-based, human; conditions: HT29, 200 μg/mL
Description: Nitrate, i.e., a stable end product of NO, was measured in culture supernatants with a spectrophotometric method based on the Griess reaction. Culture supernatants were collected from the cell cultures treated with specific concentrations of the tested compounds (25, 75, 150, and 200 μg/mL, respectively). Briefly, 100 μL of the culture supernatant was placed in 96-well flat-bottomed plates in triplicate and incubated with 100 μL of Griess reagent (1% sulfanilamide/0.1% N-(1-naphthyl)ethylenediamine dihydrochloride) in 3% H3PO4 at room temperature for 10 min. The optical density was measured at 550 nm using a microplate reader. A standard curve was prepared using 0.5–25 μM sodium nitrite (NaNO2) for calibration.

[1] = Ferric-reducing antioxidant power (FRAP) assay
Source text: Antioxidant activity is a complex procedure, usually happening through several multiple or predominant chemical mechanisms (i.e., hydrogen atom transfer (HAT), single electron transfer (SET), and the ability to chelate transition metals), and it is influenced by many factors, which cannot be fully described with one single method. Therefore, it is important to perform more than one type of measurement to take into account the various mechanisms of antioxidant action. In this study, to assess the antioxidant activity of TZD–TSCs 2–5, two complementary tests were used: a DPPH (2,2-diphenyl-1-picrylhydrazyl) free radical-scavenging ability assay, that detects the HAT and SET mechanisms, and a FRAP (ferric reducing antioxidant power) assay, that prefers the […] mechanism. The antioxidant powers of 2–5 were compared to standard antioxidants, such as the water-soluble synthetic analogue of vitamin E (Trolox) and ascorbic acid (vitamin C).
Each compound concentration (25, 75, 150, and 200 μg/mL, respectively) was dissolved in Milli-Q water and mixed with an equal volume of 0.2 M sodium phosphate buffer (pH 6.6) and 1% potassium ferricyanide. The mixture was incubated for 30 min at 37 °C. Thereafter, 10% trichloroacetic acid (w/v) was added and the mixture was centrifuged at 1000 g for 5 min. One mL of the upper layer was mixed with an equal volume of Milli-Q water and 0.1% ferric chloride. The absorbance was read at 700 nm using an EL800 Universal Microplate Reader (BioTek Instruments, Winooski, VT, USA). Ascorbic acid (0–150 μg/mL) was used as a positive control.

T98G cells [2] = assay: MTT assay, T98G; assay type: cell-based, human; conditions: for IC50: Homo sapiens, T98G, MTT, 24 h treatment, mean ± SD; for SI (selectivity index): IC50 CCD 841 CoTr divided by IC50 T98G
Description: The effects of TZD–TSCs 2–5 on the cellular viability of a panel of cell lines were investigated through an 3-(4,5-dimethylthiazol-2-yl)-2,5-diphenyl-2H-tetrazolium bromide (MTT) assay, following a 24 h treatment with the compounds. The panel consisted of three solid tumor cells: T98G (glioblastoma multiforme), HepG2 (hepatocellular carcinoma, epithelial), and HT29 (colon adenocarcinoma, epithelial), as well as noncancerous cells CCD 841 CoTr (normal colon, epithelial).
Primary single dose screenings of TZD–TSCs 2–5 were performed at a concentration of 200 μg/mL, and those that elicited a greater than 80% inhibition of cell proliferation were analyzed at several concentrations, to find their half-maximal inhibitory concentration (IC50). The IC50 values, reported as the mean ± SD in Table 2, indicate the concentration of the tested compound that inhibits the growth/viability of the cancer cell population by 50%. In this specific case of an MTT assay, which measures the activity of mitochondrial dehydrogenases (as an indicator of cell viability), the IC50 values stand for the concentration that inhibits the metabolic activity of cells by 50%.
Human colon adenocarcinoma cells, HT29 (ATCC no. HTB-38), derived from a grade I tumor, were cultured in roswell park memorial institute Medium (RPMI) 1640 medium, supplemented with 10% fetal calf serum (FCS) (GibcoTM, Paisley, UK) and antibiotics (100 U/mL penicillin and 100 μg/mL streptomycin) (Sigma, St. Louis, MO), at 37 °C in a humidified atmosphere with 5% CO2. Human normal colon epithelial cells, CCD 841 CoTr (ATCC no. CRL-1807), were cultured in RPMI 1640 + dulbecco’s modified eagle medium (DMEM) (1:1) medium (Sigma, St. Louis, MO), supplemented with 10% FCS and antibiotics, at 34 °C in a 5% CO2/95% air atmosphere. Human glioblastoma T98G cells were cultured in Dulbecco’s Modified Eagle’s Medium (DMEM) (Sigma Aldrich, St. Louis, MO, USA), supplemented with 10% fetal bovine serum (FBS), penicillin (100 U/mL), and streptomycin (100 μg/mL). Human hepatocellular carcinoma cells, HepG2, were maintained in Eagle’s Minimum Essential Medium, supplemented with 10% FBS, penicillin (100 U/mL), and streptomycin (100 μg/mL).
After 24 h of incubation of the cells with the tested compounds in 100 μL of culture medium, MTT solution (5 mg/mL, 25 μL/well) was added and incubated for an additional 3 h. The purple crystals of formazan which formed in the medium were solubilized overnight in 10% sodium dodecyl sulphate (SDS) in a 0.01 M HCl mixture. The product was quantified spectrophotometrically by measuring its absorbance at 570 nm using an Emax Microplate Reader (Molecular Devices Corporation, Menlo Park, CA, USA).

T98G cells [3] = assay: Cell migration (wound healing) assay, T98G; assay type: cell-based, human; conditions: 24 h; for Migration of cancer cells (wound healing): IC50 doses (2: 26.82 μM; 3: 28.34 μM); for Reduction in the migratory potential: ½ IC50 concentrations (2: 13.41 μM; 3: 14.17 μM)
Description: The possible anti-migratory effect of 2 and 3 was examined against HepG2 and T98G cells, which most effectively responded to TZD–TSC treatment. The ability of cells to cover the scratched area was monitored after 24 h of incubation with compounds 2 and 3. […] Thus, we can conclude that the anticancer potential of the investigated compounds is enriched by their anti-metastatic effect.
Cell migration ability was evaluated according to a wound healing assay. On the day of the experiment, HepG2 and T98G cells were collected from monolayers using trypsin/EDTA and seeded on 6-well plates at a density of 1 × 10^5 cells mL^−1. After 24 h, when the confluence of cells reached about 80%, a vertical linear scratch was created in the monolayer with a sterile pipette tip. The cells were washed three times with a phosphate-buffered saline (PBS) to remove all cellular debris. Subsequently, the cells were cultured in a serum-free medium, containing compounds 2 or 3 in the concentrations equal to their IC50 or ½ IC50 values, as examined for HepG2 and T98G cancer cell lines (data provided in Table 2).Images of the scratch were taken after 0 h and 24 h using an Olympus CKX53 microscope coupled with a XM10 digital camera (Olympus). The experiments were performed at least in duplicate. The scratch area at the beginning of the experiment (0 h) was considered to be 100%. The open wound area was measured with the NIH ImageJ software version 1.53t (Bethesda, Rockville, MD, USA). The percentage of wound closure was calculated using the following formula [81]: Wound closure (%)=open wound area at 0 h −open wound area at 24 h or 48 h/open wound area at 0 h×100%

Row | SMILES | NO production, [NO2^−] (HT29 cells) | FRAP reduction value corresponding to concentration of ascorbic acid ([1]; compound at 25 μg/mL) | FRAP reduction value corresponding to concentration of ascorbic acid ([1]; compound at 75 μg/mL) | FRAP reduction value corresponding to concentration of ascorbic acid ([1]; compound at 150 μg/mL) | FRAP reduction value corresponding to concentration of ascorbic acid ([1]; compound at 200 μg/mL) | IC50 (T98G cells [2]) | SI (selectivity index) (T98G cells [2]) | Migration of cancer cells (wound healing) (T98G cells [3]) | Reduction in the migratory potential (T98G cells [3])
1 | O=C(C=C1SC(=O)NC1=O)Oc1ccccc1C=NNC(=S)Nc1ccccc1Cl [TZD–TSC 2] | 0.272 µM | 2.43 µg/mL | 4.32 µg/mL | 3.51 µg/mL | 7.84 µg/mL | 26.8 ± 1.54 µM | 1.66 | almost completely suppressed | > 90%
2 | O=C(C=C1SC(=O)NC1=O)Oc1ccccc1C=NNC(=S)Nc1cccc(Cl)c1 [TZD–TSC 3] | 0.201 µM | 0.81 µg/mL | 0.27 µg/mL | 1.08 µg/mL | 1.89 µg/mL | 28.3 ± 2.21 µM | 3.54 | almost completely suppressed | > 90%
